# Data published in ChEMBL document CHEMBL4819010, “Design, synthesis, and biological studies of novel 3-benzamidobenzoic acid derivatives as farnesoid X receptor partial agonist” (Eur J Med Chem, 2021).
# Activity calls are given as the source filed them. The rule behind the calls is not given here.
# Experiments:
# Bile acid receptor = target: T1, Bile acid receptor (Homo sapiens, UniProt Q96RI1); experiment: Agonist activity at FXR-LBD (unknown origin) assessed by ligand binding ability incubated for 3 hrs in absence of light measured by TR-FRET Coactivator assay
# T1 sequence (Q96RI1 whole entry): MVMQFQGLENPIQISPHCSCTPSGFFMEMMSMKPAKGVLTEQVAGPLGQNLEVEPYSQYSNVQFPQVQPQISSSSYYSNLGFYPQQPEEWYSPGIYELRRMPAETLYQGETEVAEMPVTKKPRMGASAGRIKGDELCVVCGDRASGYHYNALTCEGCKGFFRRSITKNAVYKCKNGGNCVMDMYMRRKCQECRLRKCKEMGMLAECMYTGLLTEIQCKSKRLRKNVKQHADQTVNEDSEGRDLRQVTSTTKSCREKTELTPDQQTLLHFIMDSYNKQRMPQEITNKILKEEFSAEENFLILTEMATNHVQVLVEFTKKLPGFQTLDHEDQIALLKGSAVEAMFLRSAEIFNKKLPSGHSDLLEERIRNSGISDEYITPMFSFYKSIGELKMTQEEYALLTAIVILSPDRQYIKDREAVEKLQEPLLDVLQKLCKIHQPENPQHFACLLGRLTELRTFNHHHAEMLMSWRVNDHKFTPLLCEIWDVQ
# [1] = Agonist activity at FXR (unknown origin)/human RXR heterodimer expressing in human HepG2 cells co-expressing pCMV gal assessed luciferase activity measured after 24 hrs by cell based luciferase transactivation assay; conditions: HepG2, 24 h
# HepG2 = experiment: Agonist activity at FXR (unknown origin)/human RXR heterodimer expressing in human HepG2 cells co-expressing pCMV gal assessed luciferase activity measured after 24 hrs by cell based luciferase transactivation assay relative to […]; conditions: dose 3.0 µM
# Mus musculus [2] = experiment: Hepatoprotective activity in APAP-induced C57BL/6 mouse liver injury model assessed as decrease in hepatic necrosis at 30 mg/kg, bid oral gavage for 5 days measured after 12 hrs of APAP injection; assay type: functional, organism-based; conditions: time 5.0 day
# Mus musculus [3] = experiment: Hepatoprotective activity in APAP-induced C57BL/6 mouse liver injury model assessed as decrease in hepatic degeneration at 30 mg/kg, bid oral gavage for 5 days measured after 12 hrs of APAP injection; assay type: functional, organism-based; conditions: time 5.0 day
# Mus musculus [4] = experiment: Hepatoprotective activity in APAP-induced C57BL/6 mouse liver injury model assessed as decrease in hepatic haemorrhage at 30 mg/kg, bid oral gavage for 5 days measured after 12 hrs of APAP injection; assay type: functional, organism-based; conditions: time 5.0 day
# Mus musculus [5] = experiment: Hepatoprotective activity in APAP-induced C57BL/6 mouse liver injury model assessed as decrease in […] at 30 mg/kg, bid oral gavage measured after 5 days; assay type: functional, organism-based; conditions: time 5.0 day
# Mus musculus [6] = experiment: Hepatoprotective activity in APAP-induced C57BL/6 mouse liver injury model assessed as decrease in serum ALT levels at 30 mg/kg, bid oral gavage measured after 5 days; assay type: functional, organism-based; conditions: time 5.0 day
# Mus musculus [7] = experiment: Hepatoprotective activity in APAP-induced C57BL/6 mouse liver injury model assessed as decrease in serum AST levels at 30 mg/kg, bid oral gavage measured after 5 days; assay type: functional, organism-based; conditions: time 5.0 day
# Mus musculus [8] = experiment: Hepatoprotective activity in APAP-induced C57BL/6 mouse liver injury model assessed as decrease in serum LDH levels at 30 mg/kg, bid oral gavage measured after 5 days; assay type: functional, organism-based; conditions: time 5.0 day
# [9] = target: T2, Bile acid receptor (Mus musculus) (UniProt Q60641); experiment: In vivo agonist activity at FXR in C57BL/6 mouse assessed as inhibition of APAP-induced FXR decline at 30 mg/kg, bid ip measured after 5 days by RT-PCR method; assay type: functional, organism-based; conditions: time 5.0 day
# T2 sequence (whole entry): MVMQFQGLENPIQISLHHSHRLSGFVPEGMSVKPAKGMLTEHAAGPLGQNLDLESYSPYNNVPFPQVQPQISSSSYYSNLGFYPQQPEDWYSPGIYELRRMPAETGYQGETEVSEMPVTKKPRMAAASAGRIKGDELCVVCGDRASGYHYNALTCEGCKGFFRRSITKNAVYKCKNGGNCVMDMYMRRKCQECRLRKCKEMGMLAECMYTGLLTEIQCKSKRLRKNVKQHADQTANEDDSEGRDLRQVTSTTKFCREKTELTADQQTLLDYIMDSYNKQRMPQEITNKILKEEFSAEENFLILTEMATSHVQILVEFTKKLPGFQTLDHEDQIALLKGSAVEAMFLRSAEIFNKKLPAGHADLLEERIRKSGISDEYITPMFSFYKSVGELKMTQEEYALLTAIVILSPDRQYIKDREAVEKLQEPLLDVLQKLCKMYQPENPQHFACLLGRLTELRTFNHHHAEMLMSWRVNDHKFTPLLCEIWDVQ
# [10] = target: T2, Bile acid receptor (Mus musculus); experiment: In vivo agonist activity at FXR in C57BL/6 mouse assessed as increase of UGT1A1 mRNA expression at 30 mg/kg, bid ip measured after 5 days by RT-PCR method; assay type: functional, organism-based; conditions: time 5.0 day
# [11] = target: T2, Bile acid receptor (Mus musculus); experiment: In vivo agonist activity at FXR in C57BL/6 mouse assessed as increase of BSEP mRNA expression at 30 mg/kg, bid ip measured after 5 days by RT-PCR method; assay type: functional, organism-based; conditions: time 5.0 day
# [12] = target: T2, Bile acid receptor (Mus musculus); experiment: In vivo agonist activity at FXR in C57BL/6 mouse assessed as upregulation of OST beta mRNA expression at 30 mg/kg, bid ip measured after 5 days by RT-PCR method; assay type: functional, organism-based; conditions: time 5.0 day
# [13] = target: T2, Bile acid receptor (Mus musculus); experiment: In vivo agonist activity at FXR in C57BL/6 mouse assessed as upregulation of SHP mRNA expression at 30 mg/kg, bid ip measured after 5 days by RT-PCR method; assay type: functional, organism-based; conditions: time 5.0 day
# [14] = target: T2, Bile acid receptor (Mus musculus); experiment: In vivo agonist activity at FXR in C57BL/6 mouse assessed as upregulation of IBABP mRNA expression at 30 mg/kg, bid ip measured after 5 days by RT-PCR method; assay type: functional, organism-based; conditions: time 5.0 day
# [15] = target: T2, Bile acid receptor (Mus musculus); experiment: In vivo agonist activity at FXR in C57BL/6 mouse assessed as decrease of CYP7A1 mRNA expression at 30 mg/kg, bid ip measured after 5 days by RT-PCR method; assay type: functional, organism-based; conditions: time 5.0 day
# Mus musculus [16] = experiment: Hepatoprotective activity in APAP-induced C57BL/6 mouse liver injury model assessed as increase in GSH levels at 30 mg/kg, bid oral gavage measured after 5 days; assay type: functional, organism-based; conditions: time 5.0 day
# Mus musculus [17] = experiment: Hepatoprotective activity in APAP-induced C57BL/6 mouse liver injury model assessed as increase in Gclm mRNA expression at 30 mg/kg, bid oral gavage measured after 5 days by qRT-PCR method; assay type: functional, organism-based; conditions: time 5.0 day
# Mus musculus [18] = experiment: Hepatoprotective activity in APAP-induced C57BL/6 mouse liver injury model assessed as increase in catalase mRNA expression at 30 mg/kg, bid oral gavage measured after 5 days by qRT-PCR method; assay type: functional, organism-based; conditions: time 5.0 day
# Mus musculus [19] = experiment: Hepatoprotective activity in APAP-induced C57BL/6 mouse liver injury model assessed as increase in SOD2 mRNA expression at 30 mg/kg, bid oral gavage measured after 5 days by qRT-PCR method; assay type: functional, organism-based; conditions: time 5.0 day
# Mus musculus [20] = experiment: Hepatoprotective activity in APAP-induced C57BL/6 mouse liver injury model assessed as increase in Gpx1 mRNA expression at 30 mg/kg, bid oral gavage measured after 5 days by qRT-PCR method; assay type: functional, organism-based; conditions: time 5.0 day
# Mus musculus [21] = experiment: Hepatoprotective activity in APAP-induced C57BL/6 mouse liver injury model assessed as increase in SOD1 mRNA expression at 30 mg/kg, bid oral gavage measured after 5 days by qRT-PCR method; assay type: functional, organism-based; conditions: time 5.0 day
smiles,measurement,setting,value
CO/N=C(/COc1ccc(C(=O)Nc2cccc(C(=O)O)c2)cc1)c1ccccc1,EC50,Bile acid receptor,> 10000 nM
COc1cccc(C(=O)Nc2cccc(C(=O)O)c2)c1,EC50,Bile acid receptor,1040 nM
CC(C)(Oc1cccc(NC(=O)c2ccc(Oc3ccccc3)cc2)c1)C(=O)O,EC50,Bile acid receptor,> 10000 nM
CC(Oc1cccc(NC(=O)c2ccc(Oc3ccccc3)cc2)c1)C(=O)O (stereo not given),EC50,Bile acid receptor,> 10000 nM
Cc1cccc(COc2cccc(C(=O)Nc3cccc(C(=O)O)c3)c2)c1,EC50,Bile acid receptor,1860 nM
Cc1ccccc1-c1cccc(C(=O)Nc2cccc(C(=O)O)c2)c1,EC50,Bile acid receptor,68 nM
same,EC50,[1],385 nM
same,Activity,HepG2,23.1%
Cc1ccc(COc2cccc(C(=O)Nc3cccc(C(=O)O)c3)c2)cc1,EC50,Bile acid receptor,1420 nM
CCCOc1cccc(C(=O)Nc2cccc(C(=O)O)c2)c1,EC50,Bile acid receptor,2150 nM
O=C(Nc1ccccc1C(=O)O)c1ccc(Oc2ccccc2)cc1,EC50,Bile acid receptor,> 10000 nM
COc1ccccc1C(=O)Nc1ccc(C)c(C(=O)O)c1,EC50,Bile acid receptor,> 10000 nM
O=C(O)c1cccc(OCc2ccc(Oc3ccccc3)cc2)c1,EC50,Bile acid receptor,> 10000 nM
O=C(O)c1cccc(NC(=O)c2cccc(-c3ccccc3)c2)c1,EC50,Bile acid receptor,25 nM
same,EC50,[1],196 nM
same,Activity,HepG2,28.6%
same,Activity,Mus musculus [2],Active
same,Activity,Mus musculus [3],Active
same,Activity,Mus musculus [4],Active
same,Activity,Mus musculus [5],Active
same,Activity,Mus musculus [6],Active
same,Activity,Mus musculus [7],Active
same,Activity,Mus musculus [8],Active
same,Activity,[9],Active
same,Activity,[10],Active
same,Activity,[11],Active
same,Activity,[12],Active
same,Activity,[13],Active
same,Activity,[14],Active
same,Activity,[15],Active
same,Activity,Mus musculus [16],Active
same,Activity,Mus musculus [17],Active
same,Activity,Mus musculus [18],Active
same,Activity,Mus musculus [19],Active
same,Activity,Mus musculus [20],Active
same,Activity,Mus musculus [21],Active
CC(C)CCOc1ccc(C(=O)Nc2cccc(C(=O)O)c2)cc1,EC50,Bile acid receptor,215 nM
O=C(O)c1cccc(NC(=O)c2ccc(-c3ccccc3)cc2)c1,EC50,Bile acid receptor,> 10000 nM
O=C(O)c1cccc(NC(=O)c2cccc(OCc3ccccc3)c2)c1,EC50,Bile acid receptor,1160 nM
Cc1nc(-c2ccc(C(F)(F)F)cc2)sc1C(=O)Nc1cccc(C(=O)O)c1,EC50,Bile acid receptor,315 nM
CCOc1cccc(C(=O)Nc2cccc(C(=O)O)c2)c1,EC50,Bile acid receptor,2350 nM
CC(C)CCOc1cccc(C(=O)Nc2cccc(C(=O)O)c2)c1,EC50,Bile acid receptor,2760 nM
O=C(O)c1cccc(NC(=O)c2csc(-c3ccc(C(F)(F)F)cc3)n2)c1,EC50,Bile acid receptor,1690 nM
O=C(O)c1cccc(NC(=O)c2nc(-c3ccccc3)cs2)c1,EC50,Bile acid receptor,2880 nM
Cc1ccc(NC(=O)c2ccc(Oc3ccccc3)cc2)cc1C(=O)O,EC50,Bile acid receptor,127 nM
Cc1ccc(NC(=O)c2cccc(C(=O)O)c2)cc1,EC50,Bile acid receptor,> 10000 nM
Cc1cccc(COc2ccc(C(=O)Nc3cccc(C(=O)O)c3)cc2)c1,EC50,Bile acid receptor,259 nM
O=C(O)COc1cccc(NC(=O)c2ccc(Oc3ccccc3)cc2)c1,EC50,Bile acid receptor,> 10000 nM
O=C(O)c1cccc(NC(=O)c2cccc(OCC3CC3)c2)c1,EC50,Bile acid receptor,1260 nM
COc1ccc(C(=O)Nc2cccc(C(=O)O)c2)cc1,EC50,Bile acid receptor,607 nM
O=C(O)c1cccc(NC(=O)c2ccc(OCc3cccc(-c4ccccc4)c3)cc2)c1,EC50,Bile acid receptor,319 nM
O=C(O)c1cccc(NC(=O)c2ccc(OCc3ccccc3)cc2)c1,EC50,Bile acid receptor,135 nM
O=C(O)c1ccc(NC(=O)c2ccc(Oc3ccccc3)cc2)cc1,EC50,Bile acid receptor,> 10000 nM
COc1ccccc1C(=O)Nc1cccc(C(=O)O)c1,EC50,Bile acid receptor,> 10000 nM
CCCCCOc1cccc(C(=O)Nc2cccc(C(=O)O)c2)c1,EC50,Bile acid receptor,2540 nM
CCCCOc1ccc(C(=O)Nc2cccc(C(=O)O)c2)cc1,EC50,Bile acid receptor,105 nM
CCCCOc1cccc(-c2cccc(C(=O)Nc3cccc(C(=O)O)c3)c2)c1,EC50,Bile acid receptor,256 nM
O=C(O)c1ccc(OCc2ccc(OCc3c(-c4c(Cl)cccc4Cl)noc3C3CC3)cc2)cc1,EC50,Bile acid receptor,265 nM
same,Activity,Mus musculus [2],Active
same,Activity,Mus musculus [3],Active
same,Activity,Mus musculus [4],Active
same,Activity,Mus musculus [6],Active
same,Activity,Mus musculus [7],Active
same,Activity,Mus musculus [8],Active
O=C(O)c1cccc(NC(=O)c2ccc(Oc3ccccc3)cc2)c1,EC50,Bile acid receptor,97 nM
same,EC50,[1],463 nM
same,Activity,HepG2,21.2%
same,Activity,Mus musculus [2],Active
same,Activity,Mus musculus [3],Active
same,Activity,Mus musculus [4],Active
same,Activity,Mus musculus [6],Active
same,Activity,Mus musculus [7],Active
same,Activity,Mus musculus [8],Active
Cc1cc(C(=O)Nc2cccc(C(=O)O)c2)nn1-c1ccccc1,EC50,Bile acid receptor,> 10000 nM
Cc1ccccc1-c1cccc(COc2ccc(C(=O)Nc3cccc(C(=O)O)c3)cc2)c1,EC50,Bile acid receptor,1020 nM
